Reference: publication PMC3388911, “Structure of Leishmania major cysteine synthase” (Acta Crystallographica Section F: Structural Biology and …, 2012)
Read-outs that look alike come from different tables or passages of the source. Where a SMILES comes first, the peptide text is derived from it. Where no end group is shown, it is not given here. The star is where a group is joined. Cbz = O=C(OCc1ccccc1)*

Legend:
[1] = target: T1, LmCS (L. major cysteine synthase) (Leishmania major, UniProt Q4Q159); assay: biochemical
T1 sequence (Q4Q159 1-333): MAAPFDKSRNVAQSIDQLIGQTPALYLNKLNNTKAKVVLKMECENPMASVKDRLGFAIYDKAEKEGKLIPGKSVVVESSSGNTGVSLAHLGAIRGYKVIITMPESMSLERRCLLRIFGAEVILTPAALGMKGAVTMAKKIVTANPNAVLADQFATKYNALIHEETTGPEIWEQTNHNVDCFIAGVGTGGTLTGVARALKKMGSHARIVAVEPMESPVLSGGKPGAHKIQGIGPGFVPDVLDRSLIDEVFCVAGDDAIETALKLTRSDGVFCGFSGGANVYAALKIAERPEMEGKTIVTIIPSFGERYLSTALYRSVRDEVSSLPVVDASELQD

[2] = target: T2, AtOAS-TL (A. thaliana O-acetylserine thiol-lyase) (Arabidopsis thaliana, UniProt P47998); conditions: read-out: AtOAS-TL IC50; 3 mM OAS, 2 mM sodium sulfide, pH 7.8, room temperature; values with ± are mean ± SD of three determinations, others single IC50 curve
[3] = target: T2, AtOAS-TL (A. thaliana O-acetylserine thiol-lyase); assay: biochemical
[4] = system: Mycobacterium tuberculosis CS (OASS); conditions: ref Schnell et al., 2007; cited from earlier work
[5] = target: Arabidopsis thaliana O-acetylserine thiol-lyase (Arabidopsis thaliana) (UniProt P47998)
[6] = target: T3, Leishmania major cysteine synthase, C-terminally His-tagged (biochemical analysis) (Leishmania major) (UniProt Q4Q159)
T3 sequence: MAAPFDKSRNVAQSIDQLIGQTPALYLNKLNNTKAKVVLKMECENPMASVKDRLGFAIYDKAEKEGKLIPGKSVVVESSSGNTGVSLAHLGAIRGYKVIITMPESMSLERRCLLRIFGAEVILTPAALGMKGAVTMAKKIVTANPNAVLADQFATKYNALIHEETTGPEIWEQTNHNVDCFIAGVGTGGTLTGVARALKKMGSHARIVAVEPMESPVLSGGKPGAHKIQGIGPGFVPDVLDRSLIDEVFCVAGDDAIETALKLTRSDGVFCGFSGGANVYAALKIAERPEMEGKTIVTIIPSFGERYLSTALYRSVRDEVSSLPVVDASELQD

[7] = target: Arabidopsis thaliana O-acetylserine thiol-lyase (Arabidopsis thaliana, UniProt P47998 1-322); assay: cell-based or functional assay
[8] = target: the molecule itself; assay: crystal structure; hanging drop at 293 K, 7.5% PGA-LM, 19% PEG 3350, 0.1 M Tris-HCl pH 7.8; P212121, dimer in the asymmetric unit; 1.8 Å; molecular replacement
[9] = 3 mM OAS, 2 mM sodium sulfide, pH 7.8, room temperature, values with ± are mean ± SD of three determinations, others single IC50 curve, read-out: LmCS IC50
[10] = LmCS IC50, 3 mM OAS, 2 mM sodium sulfide, pH 7.8, room temperature, values with ± are mean ± SD of three determinations, others single IC50 curve

Chain of Arabidopsis thaliana O-acetylserine thiol-lyase (Arabidopsis thaliana) (P47998 whole entry): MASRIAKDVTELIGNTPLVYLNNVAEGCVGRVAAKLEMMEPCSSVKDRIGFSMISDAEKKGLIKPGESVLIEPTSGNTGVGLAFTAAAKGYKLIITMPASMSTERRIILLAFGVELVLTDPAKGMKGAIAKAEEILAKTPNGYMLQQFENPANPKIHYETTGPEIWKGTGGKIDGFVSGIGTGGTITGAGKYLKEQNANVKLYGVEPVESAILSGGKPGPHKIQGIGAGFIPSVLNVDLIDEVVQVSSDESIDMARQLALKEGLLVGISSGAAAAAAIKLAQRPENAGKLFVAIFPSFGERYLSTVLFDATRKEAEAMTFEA
T2 sequence (P47998 whole entry): as above
Chain of Arabidopsis thaliana O-acetylserine thiol-lyase (P47998 whole entry): as above

CC[C@H](C)[C@H](NC(=O)Cc1c[nH]c2ccccc12)C(=O)O [N-3-Indolylacetyl-L-isoleucine]
IC50 [1, 9]: 260 µM

CC[C@H](C)[C@H](NC(=O)CNC(=O)[C@H](CO)NC(=O)CN)C(=O)O [GSGI] (H-GSGI-OH)
IC50 [2]: ≤ 2000 µM
IC50 ([1]; LmCS IC50, 3 mM OAS, 2 mM sodium sulfide): ~1500 µM
IC50 [1, 10]: 1500 µM

CC[C@H](C)[C@H](NC(=O)[C@@H](NC(=O)[C@H](Cc1ccc(O)cc1)NC(=O)[C@@H](N)CC(=O)O)C(C)C)C(=O)O [DYVI] (H-DYVI-OH)
Ki [1]: 4 µM
IC50 [1, 10]: 7 ± 1 µM

DGSGI [DGSGI]
IC50 [1, 10]: 620 ± 50 µM
IC50 [3]: 170 µM

DFSI
type of inhibition of M. tuberculosis OASS [4]: competitive inhibitor

(γ-Glu)4
inhibition of LmCS ([1]; tested up to a concentration of 500 µM): unable to detect any significant inhibition
inhibition of LmCS ([1]; tested up to a concentration of 500 µM, listed as D-glutamate tetrapeptide): insignificant inhibitory activity

EGDGSGI [EGDGSGI]
IC50 [1, 10]: 270 ± 70 µM
IC50 [3]: 240 µM

CC[C@H](C)[C@H](N)C(=O)O [L-Isoleucine]
IC50 [1, 9]: > 4000 µM
inhibition of LmCS ([1]; at 4 mM): no activity

CC[C@H](C)[C@H](NC(=O)[C@@H](NC(=O)OCc1ccccc1)C(C)C)C(=O)O [N-CBZ-L-valine-isoleucine] (Cbz-Val-Ile-OH)
IC50 [1]: 1410 µM

CC[C@H](C)[C@H](NC(=O)OCc1ccccc1)C(=O)O [N-CBZ-L-isoleucine]
IC50 [1]: 320 µM

B1: GSGI, Leishmania SAT C-terminal peptide (peptide)
peptide: GSGI
IC50 of inhibition of cysteine synthase activity (cysteine production; 3 mM OAS, 2 mM sodium sulfide); single IC50 curve [5]: < 2000 µM
IC50 of inhibition of cysteine synthase activity (cysteine production; 3 mM OAS, 2 mM sodium sulfide); single IC50 curve [6]: 1500 µM

B2: DGSGI, Leishmania SAT C-terminal peptide (peptide)
peptide: DGSGI
IC50 of inhibition of cysteine synthase activity (cysteine production; 3 mM OAS, 2 mM sodium sulfide); single IC50 curve [5]: 170 µM
IC50 of inhibition of cysteine synthase activity (cysteine production; 3 mM OAS, 2 mM sodium sulfide) [6]: 620 µM

B3: EGDGSGI, Leishmania SAT C-terminal heptapeptide (peptide)
peptide: EGDGSGI
IC50 of inhibition of cysteine synthase activity (cysteine production; 3 mM OAS, 2 mM sodium sulfide); single IC50 curve [5]: 240 µM
IC50 of inhibition of cysteine synthase activity (cysteine production; 3 mM OAS, 2 mM sodium sulfide) [6]: 270 µM

B4: DYVI, peptide based on the C-terminus of A. thaliana serine acetyltransferase (peptide)
peptide: DYVI
modifications: not fully specified
IC50 of inhibition of cysteine synthase activity (cysteine production; 3 mM OAS, 2 mM sodium sulfide) [6]: 7 µM
IC50 of inhibition of cysteine synthase activity (cysteine production; 3 mM OAS, 2 mM sodium sulfide) [7]: 8 µM

B5: Leishmania major cysteine synthase (crystallised form, His tag cleaved) (enzyme)
chain: MAAPFDKSRNVAQSIDQLIGQTPALYLNKLNNTKAKVVLKMECENPMASVKDRLGFAIYDKAEKEGKLIPGKSVVVESSSGNTGVSLAHLGAIRGYKVIITMPESMSLERRCLLRIFGAEVILTPAALGMKGAVTMAKKIVTANPNAVLADQFATKYNALIHEETTGPEIWEQTNHNVDCFIAGVGTGGTLTGVARALKKMGSHARIVAVEPMESPVLSGGKPGAHKIQGIGPGFVPDVLDRSLIDEVFCVAGDDAIETALKLTRSDGVFCGFSGGANVYAALKIAERPEMEGKTIVTIIPSFGERYLSTALYRSVRDEVSSLPVVDASELQD
notes: Leishmania major cysteine synthase (EC 2.5.1.47); LmCS gene subcloned from pET21a+ into pET15bTEV; theoretical mass of one subunit 35.6 kDa; residues 3-213 and 241-333 (subunit A) and 4-214 and 241-333 (subunit B) are seen in the model; The pyridoxal phosphate cofactor was lost in the crystal; A fragment of gamma-poly-D-glutamic acid lies in the active site; also called LmCS; L. major CS; source: …
stoichiometry N [8]: 2
